Measured values reported in publication PMC9841527 (Journal of Medicinal Chemistry, 2022).

Columns and labels:
[1] = molecular target: MettL3-MettL14 (Homo sapiens, UniProt Q86U44); experiment: Selectivity assay, MettL3-MettL14; format: biochemical; details: [I] = 10 μM, [SAM] = 20 μM, 5 mM NaCl, or CamA conditions
[2] = molecular target: DOT1L (Homo sapiens, UniProt Q8TEK3); experiment: Selectivity assay, DOT1L; format: biochemical; details: compound 10 μM, 3H-SAM 1 μM
[3] = molecular target: PCIF1 (Homo sapiens, UniProt Q9H4Z3); format: biochemical
Chain of PCIF1 (Q9H4Z3 whole entry): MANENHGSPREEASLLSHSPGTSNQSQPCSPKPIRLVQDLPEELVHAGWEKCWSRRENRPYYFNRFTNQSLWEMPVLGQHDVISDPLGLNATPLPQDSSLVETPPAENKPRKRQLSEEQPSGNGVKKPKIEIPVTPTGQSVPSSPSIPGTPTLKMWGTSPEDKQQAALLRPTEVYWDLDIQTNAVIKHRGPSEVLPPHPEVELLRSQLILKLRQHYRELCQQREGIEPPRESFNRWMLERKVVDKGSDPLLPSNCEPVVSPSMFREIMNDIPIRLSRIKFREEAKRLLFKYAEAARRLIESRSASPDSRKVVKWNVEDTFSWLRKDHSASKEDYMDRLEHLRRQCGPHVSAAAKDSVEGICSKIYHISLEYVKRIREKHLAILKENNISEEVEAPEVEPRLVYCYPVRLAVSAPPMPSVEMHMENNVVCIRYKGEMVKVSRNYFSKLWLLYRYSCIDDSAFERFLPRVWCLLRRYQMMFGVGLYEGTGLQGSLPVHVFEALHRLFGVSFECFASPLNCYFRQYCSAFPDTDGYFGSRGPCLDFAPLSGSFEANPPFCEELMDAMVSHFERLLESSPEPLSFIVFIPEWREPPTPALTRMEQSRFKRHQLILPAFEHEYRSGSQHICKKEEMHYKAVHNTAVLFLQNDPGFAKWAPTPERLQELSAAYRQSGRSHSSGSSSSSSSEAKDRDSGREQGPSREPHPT

[4] = molecular target: Dnmt3a-Dnmt3L (Mus musculus, UniProt O88508); format: biochemical
[5] = molecular target: T1, CamA (Clostridioides difficile, UniProt Q183J3); format: biochemical
T1 sequence (Q183J3 1-577): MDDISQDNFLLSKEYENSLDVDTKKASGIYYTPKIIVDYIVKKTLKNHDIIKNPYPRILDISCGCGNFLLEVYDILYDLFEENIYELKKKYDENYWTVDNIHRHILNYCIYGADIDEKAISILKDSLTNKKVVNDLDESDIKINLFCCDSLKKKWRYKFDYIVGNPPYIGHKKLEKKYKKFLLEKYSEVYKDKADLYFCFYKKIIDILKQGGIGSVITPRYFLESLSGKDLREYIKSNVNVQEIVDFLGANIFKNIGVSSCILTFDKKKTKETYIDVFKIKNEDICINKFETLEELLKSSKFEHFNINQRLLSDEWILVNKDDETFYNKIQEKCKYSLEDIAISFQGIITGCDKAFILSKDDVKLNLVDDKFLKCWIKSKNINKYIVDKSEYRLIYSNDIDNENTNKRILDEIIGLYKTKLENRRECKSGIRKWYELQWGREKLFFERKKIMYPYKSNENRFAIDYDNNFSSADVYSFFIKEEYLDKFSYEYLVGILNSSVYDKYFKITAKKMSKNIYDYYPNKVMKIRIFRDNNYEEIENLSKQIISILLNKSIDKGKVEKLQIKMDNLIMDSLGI

[6] = molecular target: T2, A1 adenosine receptor (A1AR) (Homo sapiens, UniProt P30542); experiment: A1AR agonist radioligand binding assay; details: compound 10 μM, [3H]CCPA 1 nM, transfected CHO cell membranes
T2 sequence (P30542 1-326): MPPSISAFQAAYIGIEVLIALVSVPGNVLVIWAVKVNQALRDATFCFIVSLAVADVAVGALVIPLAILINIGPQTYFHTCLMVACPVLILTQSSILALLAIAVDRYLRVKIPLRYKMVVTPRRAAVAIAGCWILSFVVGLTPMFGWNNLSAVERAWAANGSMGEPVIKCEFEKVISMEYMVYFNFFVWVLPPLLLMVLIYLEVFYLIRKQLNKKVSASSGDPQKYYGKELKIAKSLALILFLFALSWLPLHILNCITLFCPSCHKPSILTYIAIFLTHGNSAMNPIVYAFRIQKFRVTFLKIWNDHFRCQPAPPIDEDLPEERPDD

[7] = molecular target: PRMT1 (Homo sapiens, UniProt Q99873); experiment: Selectivity assay, PRMT1; format: biochemical; details: compound 10 μM, 3H-SAM 1 μM
Chain of PRMT1 (Q99873 whole entry): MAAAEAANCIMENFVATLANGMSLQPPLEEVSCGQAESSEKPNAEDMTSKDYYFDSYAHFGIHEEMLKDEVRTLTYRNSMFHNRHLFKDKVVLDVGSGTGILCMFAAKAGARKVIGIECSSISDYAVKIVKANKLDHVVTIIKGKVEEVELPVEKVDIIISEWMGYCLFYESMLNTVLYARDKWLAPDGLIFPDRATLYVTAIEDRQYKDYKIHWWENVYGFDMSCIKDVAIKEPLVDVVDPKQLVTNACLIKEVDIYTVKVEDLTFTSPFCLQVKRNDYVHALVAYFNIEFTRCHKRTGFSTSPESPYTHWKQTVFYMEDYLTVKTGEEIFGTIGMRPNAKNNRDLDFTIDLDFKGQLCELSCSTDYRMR

Chain of MettL3-MettL14 (Q86U44 whole entry): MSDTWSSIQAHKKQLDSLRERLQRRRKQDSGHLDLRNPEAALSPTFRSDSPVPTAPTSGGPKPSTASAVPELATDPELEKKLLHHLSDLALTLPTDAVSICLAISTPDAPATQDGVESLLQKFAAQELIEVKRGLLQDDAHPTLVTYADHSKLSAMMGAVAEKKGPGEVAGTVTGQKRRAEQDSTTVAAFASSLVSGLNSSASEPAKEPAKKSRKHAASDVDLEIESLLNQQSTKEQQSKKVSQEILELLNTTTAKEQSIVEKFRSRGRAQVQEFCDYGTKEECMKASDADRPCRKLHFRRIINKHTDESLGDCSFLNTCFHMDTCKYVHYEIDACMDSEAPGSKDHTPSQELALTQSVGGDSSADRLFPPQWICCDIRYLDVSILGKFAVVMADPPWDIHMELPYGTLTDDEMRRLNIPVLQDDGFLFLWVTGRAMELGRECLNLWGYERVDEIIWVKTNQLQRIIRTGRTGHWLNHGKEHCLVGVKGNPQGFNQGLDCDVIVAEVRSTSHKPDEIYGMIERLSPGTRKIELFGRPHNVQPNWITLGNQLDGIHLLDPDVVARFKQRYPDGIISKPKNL
Chain of MettL3-MettL14 (Q9HCE5 whole entry partner): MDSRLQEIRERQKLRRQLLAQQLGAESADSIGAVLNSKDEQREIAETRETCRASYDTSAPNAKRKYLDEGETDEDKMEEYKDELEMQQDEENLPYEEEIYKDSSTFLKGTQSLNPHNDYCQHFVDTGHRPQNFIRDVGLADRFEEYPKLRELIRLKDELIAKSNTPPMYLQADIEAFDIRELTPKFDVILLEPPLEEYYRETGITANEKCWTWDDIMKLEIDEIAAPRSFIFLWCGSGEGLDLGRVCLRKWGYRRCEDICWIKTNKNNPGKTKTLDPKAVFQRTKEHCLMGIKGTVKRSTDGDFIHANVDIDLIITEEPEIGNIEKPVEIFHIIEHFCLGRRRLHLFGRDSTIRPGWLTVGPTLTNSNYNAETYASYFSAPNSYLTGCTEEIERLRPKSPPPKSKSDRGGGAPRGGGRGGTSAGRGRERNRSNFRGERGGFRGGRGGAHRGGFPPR
Chain of DOT1L (Q8TEK3 whole entry): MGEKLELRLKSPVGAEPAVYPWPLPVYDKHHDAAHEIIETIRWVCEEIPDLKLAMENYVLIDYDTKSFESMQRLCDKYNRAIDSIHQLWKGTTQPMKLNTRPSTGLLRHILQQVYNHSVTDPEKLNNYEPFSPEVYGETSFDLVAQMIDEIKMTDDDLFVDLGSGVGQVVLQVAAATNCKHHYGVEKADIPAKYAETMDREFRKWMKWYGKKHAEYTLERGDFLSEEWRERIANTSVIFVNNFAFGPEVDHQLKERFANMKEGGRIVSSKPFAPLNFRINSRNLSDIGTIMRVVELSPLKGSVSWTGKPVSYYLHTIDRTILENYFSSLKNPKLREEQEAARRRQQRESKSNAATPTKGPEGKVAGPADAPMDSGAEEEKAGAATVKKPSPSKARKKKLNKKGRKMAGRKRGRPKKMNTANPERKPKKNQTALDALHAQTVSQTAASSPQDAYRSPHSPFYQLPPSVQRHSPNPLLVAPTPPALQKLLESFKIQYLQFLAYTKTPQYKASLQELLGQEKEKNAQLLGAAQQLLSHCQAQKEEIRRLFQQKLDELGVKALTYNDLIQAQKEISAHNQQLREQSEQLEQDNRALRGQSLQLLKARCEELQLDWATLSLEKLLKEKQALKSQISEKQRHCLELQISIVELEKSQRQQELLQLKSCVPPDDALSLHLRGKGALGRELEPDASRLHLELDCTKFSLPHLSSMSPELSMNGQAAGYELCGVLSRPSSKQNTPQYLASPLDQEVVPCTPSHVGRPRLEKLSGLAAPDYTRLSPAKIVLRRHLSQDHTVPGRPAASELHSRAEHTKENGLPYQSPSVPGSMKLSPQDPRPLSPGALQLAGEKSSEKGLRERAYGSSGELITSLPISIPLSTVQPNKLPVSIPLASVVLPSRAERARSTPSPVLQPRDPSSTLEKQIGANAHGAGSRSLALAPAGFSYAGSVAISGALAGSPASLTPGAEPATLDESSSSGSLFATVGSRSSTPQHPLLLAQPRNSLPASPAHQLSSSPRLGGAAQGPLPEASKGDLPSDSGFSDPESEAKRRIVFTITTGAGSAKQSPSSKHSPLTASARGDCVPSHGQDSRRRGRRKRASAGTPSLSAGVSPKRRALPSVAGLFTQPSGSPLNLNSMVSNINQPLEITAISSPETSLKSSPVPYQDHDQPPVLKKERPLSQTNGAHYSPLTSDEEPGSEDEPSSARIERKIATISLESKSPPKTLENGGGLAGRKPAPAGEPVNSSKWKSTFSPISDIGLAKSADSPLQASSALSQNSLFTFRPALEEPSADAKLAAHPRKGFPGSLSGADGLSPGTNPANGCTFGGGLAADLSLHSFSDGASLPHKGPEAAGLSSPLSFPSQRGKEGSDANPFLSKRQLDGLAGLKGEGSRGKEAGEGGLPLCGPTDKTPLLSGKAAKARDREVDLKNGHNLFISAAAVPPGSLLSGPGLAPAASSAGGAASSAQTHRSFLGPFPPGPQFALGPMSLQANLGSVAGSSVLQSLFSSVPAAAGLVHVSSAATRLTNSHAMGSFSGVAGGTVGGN

SMILES | inhibition of MettL3-MettL14 [1] | inhibition of DOT1L [2] | inhibition of PCIF1 [3] | inhibition of Dnmt3a-Dnmt3L [4] | higher potency, fold [5] | inhibition of control radioligand specific binding, A1AR [6] | inhibition of PRMT1 [7] | lower IC50 value, fold [5]
CC(C)(C)OC(=O)N1CCC(CCCNc2ncnc3c2ncn3[C@@H]2O[C@H](CO)[C@@H](O)[C@H]2O)CC1 [Compound 39, tert-Butyl-4-(3-((9-((2R,3R,4S,5R)-3,4-dihydroxy-5-(hydroxymethyl)tetrahydrofuran-2-yl)-9H-purin-6-yl)amino)propyl)piperidine-1-carboxylate] | none of them showed any significant inhibition | none of them showed any significant inhibition | none of them showed any significant inhibition | none of them showed any significant inhibition | 12 × | minimal inhibition of specific binding | none of them showed any significant inhibition | –
OC[C@H]1O[C@@H](n2cnc3c(NCCCc4ccc(O)cc4)ncnc32)[C@H](O)[C@@H]1O [Compound 16, (2R,3S,4R,5R)-2-(Hydroxymethyl)-5-(6-((3-(4-hydroxyphenyl)propyl)amino)-9H-purin-9-yl)tetrahydrofuran-3,4-diol] | none of them showed any significant inhibition | none of them showed any significant inhibition | none of them showed any significant inhibition | none of them showed any significant inhibition | – | minimal inhibition of specific binding | none of them showed any significant inhibition | ~2.7 X
